Marks after values point to notes of the source that are not given here.
Key:
[1] = molecular target: T1, human recombinant dopamine D2L receptor (Homo sapiens, UniProt P14416); test: [3H] spiperone binding, cells expressing human recombinant dopamine D2L receptors
T1 construct: expressed in transfected cells
Description: (§1) The activity of F17464 was evaluated at recombinant dopaminergic receptors in vitro for its profile at D2 and D3 receptor. […] F17464 was also evaluated for its agonist, partial agonist, or antagonist activity at the dopamine D3 receptor by using the MAP-kinase activity test on human recombinant dopamine D3 receptors (Cussac et al., Mol. Pharmacol. 1999, 56, 1025-1030).
(§2) As used herein, the term “selective D3 antagonist” refers to a D3 antagonist, as defined here above, that has more affinity for the D3 receptor than for the D2 receptor (D2S and/or D2L). Affinity of a compound for a receptor is usually expressed as a Ki value. Preferentially, the relative binding affinities are determined in competitive radioligand binding studies using cells expressing human recombinant dopamine D3, D2S or D2L receptors (Newman-Tancredi et al. British Journal of Pharmacology, 2007, 151, 237-252). More preferentially, it is defined in [^3H] spiperone binding studies using cells expressing human recombinant dopamine D3 receptors or human recombinant dopamine D2L or D2S receptors (Cussac et al. Naunyn-Schmiedeberg's Arch Pharmacol, 2000, 361, 569-572).

[2] = molecular target: T2, human recombinant dopamine D2S receptor (Homo sapiens, UniProt P14416); test: [3H] spiperone binding, cells expressing human recombinant dopamine D2S receptors
T2 construct: expressed in transfected cells
Description: as §1, §2

[3] = test system: patients with acute exacerbation of schizophrenia; test: Double-blind placebo-controlled phase II study, patients with acute exacerbation of schizophrenia; type: in vivo, human
Description: N-(3-{4-[4-(8-oxo-8H-[1,3]dioxolo[4,5-g]chromen-7-yl)-butyl]-piperazin-1-yl}-phenyl)-methanesulfonamide hydrochloride has been tested in a placebo-controlled study of patients with an acute exacerbation of schizophrenia.
This double-blind, parallel group, multicenter study included patients with acute exacerbation of schizophrenia treated either with F17464 fixed dose 40 mg (20 mg bid) or placebo (randomization 1:1) for 6 weeks as antipsychotic monotherapy. The primary objective was to evaluate the efficacy of F17464 in comparison to placebo. The primary efficacy criterion was the PANSS (Positive and Negative Syndrome Scale) total score change from baseline to Day 43 on the Full Analysis Set (FAS).
Inclusion criteria included a well-documented diagnosis of schizophrenia for a minimum of 1 year, and a recent acute exacerbation characterized by a PANSS total score at screening ≥70 and <120 with no significant change of the PANSS positive subscore between the screening and randomization visits; and Clinical Global Impression of Severity (CGI-S) score ≥4.
All patients had discontinued previous treatments within the week prior to administration of study medication.
Following screening, patients were maintained in hospital till the 3rd week of treatment. Patients who had CGI-I (Clinical Global Impression of Improvement) score of ≤3 after 3 or 4 weeks were then eligible for hospital discharge and could continue study participation as outpatients.
The PANSS scores of the tested patients were established each week.
Schizophrenia History: Before Screening Visit • Patient with a current primary diagnosis of schizophrenia undergoing an acute exacerbation with prominent “active phase” symptoms, as described by the Diagnostic and Statistical Manual of Mental Disorders, 4th edition—Text Revision (DSM IV-TR) using the MINI 6.0 (Mini-International Neuropsychiatric Interview) for schizophrenia and psychotic disorders related to DSM IV-TR; • For a minimum of 1 year, well-documented diagnosis with the first hospitalization for acute exacerbation of schizophrenia; • Since the diagnosis of schizophrenia, the average number of hospitalizations should be no higher than 2 per year (the minimum duration of hospitalization should be more than 4 days); • During the year before screening visit, maximum 3 acute psychotic episodes that required hospitalization or change of antipsychotic medication or other therapeutic intervention; • Adequate clinical response to well-conducted treatment courses during previous acute episodes. A well conducted treatment course is defined as an antipsychotic treatment with the usual doses for at least 4 weeks. Current Acute Episode: • Structured Clinical Interview for the Positive And Negative Syndrome Scale (SCI-PANSS) with a PANSS total score ≥70 to <120 (at screening and randomization visits); • Rating of at least 4 (moderate) on at least 2 of the following 4 PANSS positive symptoms: delusions, hallucinatory behavior, conceptual disorganization, suspiciousness/persecution; • Clinical Global Impression of Severity (CGI-S) score ≥4 (moderate or severe). • Antipsychotic initiated for this acute episode and/or ongoing chronic antipsychotic treatment, with a maximum of 2 antipsychotics in total needed to be changed (due to inefficacy or safety reasons); • Hospitalization and/or treatment for the current psychotic episode for less than 2 weeks prior to screening visit; • No significant improvement of PANSS total score between enrolment (screening visit) and inclusion (randomization visit) corresponding to a score improvement <20% on positive symptoms subscale. Examination: • Normal physical examination results, vital signs and clinical laboratory test results or other results judged not clinically significant by the investigator; • Body mass index (BMI)≥18 and ≤35 kg/m^2 inclusive. […]

D3 = molecular target: T3, D3 (Homo sapiens, UniProt P35462); conditions: healthy subjects, after two single dose levels; cited from earlier work
T3 construct: from tissue; host or cells: brain of healthy subjects in vivo (PET)

D2 receptor = conditions: healthy subjects, after two single dose levels; cited from earlier work
[4] = F17464 versus placebo, FAS population n = 67
[5] = F17464 versus placebo, NS subgroup n = 29
[6] = NS subgroup versus FAS population
[7] = NS subgroup versus FAS population, score points
[8] = baseline to end of treatment, FAS

T2 sequence (P14416 1-414 isoform P14416-2): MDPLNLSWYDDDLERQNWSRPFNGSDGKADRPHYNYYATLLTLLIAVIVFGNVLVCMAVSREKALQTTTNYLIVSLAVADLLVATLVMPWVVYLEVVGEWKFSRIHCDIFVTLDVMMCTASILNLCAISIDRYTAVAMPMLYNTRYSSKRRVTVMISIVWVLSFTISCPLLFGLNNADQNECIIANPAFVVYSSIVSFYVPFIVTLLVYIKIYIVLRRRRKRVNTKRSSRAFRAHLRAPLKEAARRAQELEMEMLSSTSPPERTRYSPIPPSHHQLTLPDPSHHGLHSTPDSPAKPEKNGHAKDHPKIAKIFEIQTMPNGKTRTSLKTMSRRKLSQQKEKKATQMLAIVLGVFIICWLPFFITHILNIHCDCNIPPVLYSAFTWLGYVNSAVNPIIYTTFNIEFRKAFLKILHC
T1 sequence (P14416 whole entry): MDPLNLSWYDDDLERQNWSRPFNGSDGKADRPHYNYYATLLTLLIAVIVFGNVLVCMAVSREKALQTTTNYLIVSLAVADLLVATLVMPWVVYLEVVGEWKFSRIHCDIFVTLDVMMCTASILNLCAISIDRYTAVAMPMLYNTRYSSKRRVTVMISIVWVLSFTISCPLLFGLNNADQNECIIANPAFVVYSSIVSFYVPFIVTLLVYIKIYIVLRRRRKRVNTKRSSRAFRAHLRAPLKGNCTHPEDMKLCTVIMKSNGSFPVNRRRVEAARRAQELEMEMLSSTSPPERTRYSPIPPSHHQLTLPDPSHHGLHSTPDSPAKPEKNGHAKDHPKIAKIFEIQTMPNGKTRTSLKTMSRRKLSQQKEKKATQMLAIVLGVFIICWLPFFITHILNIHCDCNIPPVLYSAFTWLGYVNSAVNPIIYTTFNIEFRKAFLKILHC
T3 sequence (P35462 whole entry): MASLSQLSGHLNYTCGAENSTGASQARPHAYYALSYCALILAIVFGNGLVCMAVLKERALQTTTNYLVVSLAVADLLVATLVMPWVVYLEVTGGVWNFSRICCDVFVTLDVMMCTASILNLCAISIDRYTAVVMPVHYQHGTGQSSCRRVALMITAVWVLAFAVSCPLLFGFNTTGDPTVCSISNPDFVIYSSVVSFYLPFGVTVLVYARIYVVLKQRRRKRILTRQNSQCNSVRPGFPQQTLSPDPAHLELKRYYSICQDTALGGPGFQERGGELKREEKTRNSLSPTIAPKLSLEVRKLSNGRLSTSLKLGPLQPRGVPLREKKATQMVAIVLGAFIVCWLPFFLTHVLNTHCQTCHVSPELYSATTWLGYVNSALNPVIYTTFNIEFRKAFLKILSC

For `CS(=O)(=O)Nc1cccc(N2CCN(CCCCc3coc4cc5c(cc4c3=O)OCO5)CC2)c1` [F17464, N-(3-{4-[4-(8-oxo-8H-[1,3]dioxolo[4,5-g]chromen-7-yl)-butyl]-piperazin-1-yl}-phenyl)-methanesulfonamide], the “affinity for dopamine D2L receptor, times weaker than D3” value ([1]; D2L versus D3) was 71 times, the Ki ([1]; [3H] spiperone binding) was 12.1 nM and the “affinity for dopamine D2S receptor, times weaker than D3” value ([2]; D2S versus D3) was 38 times. For the same compound, the Ki ([2]; [3H] spiperone binding) was 6.5 nM, the “clinically relevant hepatic, metabolic or cardio-vascular disorder” value ([3]; 20 mg bid, 6 weeks) was “no clinically relevant hepatic, metabolic (including clinically relevant weight gain) or cardio-vascular disorder” and the “overall incidence of treatment-emergent adverse events (TEAEs)” value ([3]; 20 mg bid, 6 weeks) was 70.1%. The “Treatment effect on change from baseline, PANSS general psychopathology [LSmean (SE)]” value [3, 4] was −3.6 (1.3) *, the “Treatment effect on change from baseline, PANSS negative symptoms [LSmean (SE)]” value [3, 4] was −0.7 (0.6)^ and the “Treatment effect on change from baseline, PANSS positive symptoms [LSmean (SE)]” value [3, 4] was −1.9 (1.0) *. For the same compound, the “Treatment effect on change from baseline, PANSS general psychopathology [LSmean (SE)]” value [3, 5] was −6.4 (2.0) *, the “Treatment effect on change from baseline, PANSS negative symptoms [LSmean (SE)]” value [3, 5] was −2.7 (1.1) * and the “Treatment effect on change from baseline, PANSS positive symptoms [LSmean (SE)]” value [3, 5] was −4.3 (1.6) *. The “Treatment effect on change from baseline, PANSS total score [LSmean (SE)]” value [3, 5] was −13 (4.1) *, the “PANSS general psychopathology, change from baseline [LSmean (SE)]” value ([3]; FAS population n = 67, Day 43) was −6.6 (1.0) * and the “PANSS negative symptoms, change from baseline [LSmean (SE)]” value ([3]; FAS population n = 67, Day 43) was −1.7 (0.4)^. The “PANSS positive symptoms, change from baseline [LSmean (SE)]” value ([3]; FAS population n = 67, Day 43) was −6.3 (0.8) *, the “Discontinuation for Adverse Event, number of patients” value ([3]; FAS, n = 67) was 2 and the “Discontinuation for Adverse Event, percent of patients” value ([3]; FAS, n = 67) was “(3.0%)”. The “Discontinuation for Lack Of Efficacy/Worsening of schizophrenia, number of patients” value ([3]; FAS, n = 67) was 11, the “Discontinuation for Lack Of Efficacy/Worsening of schizophrenia, percent of patients” value ([3]; FAS, n = 67) was “(16.4%)” and the “reduction of PANSS total score versus placebo over time” value ([3]; From Day 22, FAS, LOCF) was “statistically higher than in placebo group”. The “PANSS general psychopathology, change from baseline [LSmean (SE)]” value ([3]; NS subgroup n = 29, Day 43) was −9.3 (1.5) *, the “PANSS negative symptoms, change from baseline [LSmean (SE)]” value ([3]; NS subgroup n = 29, Day 43) was −4.3 (0.8) * and the “PANSS positive symptoms, change from baseline [LSmean (SE)]” value ([3]; NS subgroup n = 29, Day 43) was −8.4 (1.2) *. For the same compound, the “PANSS total score, adjusted change from baseline [LSmean (SE)]” value ([3]; NS subgroup n = 29, Day 43) was −21.8 (2.9) *, the “Difference of treatment effect, PANSS general psychopathology, percent” value [3, 6] was 78% and the “Difference of treatment effect, PANSS negative symptoms, percent” value [3, 6] was 285%. The “Difference of treatment effect, PANSS positive symptoms, percent” value [3, 6] was 126%, the “Difference of treatment effect, PANSS total score, percent” value [3, 6] was 110% and the “Difference of treatment effect, PANSS general psychopathology” value [3, 7] was 2.8. The “Difference of treatment effect, PANSS negative symptoms” value [3, 7] was 2, the “Difference of treatment effect, PANSS positive symptoms” value [3, 7] was 2.4 and the “Difference of treatment effect, PANSS total score” value [3, 7] was 6.8. The “Response rate, PANSS total score reduction by 20%” value [3, 8] was 49.3%, the “Response rate, PANSS total score reduction by 30%” value [3, 8] was 27.0% and the “Time to first sustained PANSS 20% or 30% response” value ([3]; compared to placebo group, from D21 up to Day 42) was “Shorter”. The “PANSS positive score and positive factor, defined by Marder, versus placebo” value ([3]; secondary criteria, FAS) was “statistically significantly greater”, the “D3 binding rate (PET)” value (D3) was “strong and long-lasting” and the “binding rate to D2 receptor (PET)” value (D2 receptor) was “modest”.
